Measurements reported in the supplement of paper PMC10307832.

Experiments:
Assay in all cases: relative viability (nuclei count vs DMSO), 5 days (fraction); higher = more cells survive
[1] = compound: CC1=CC=C(C=C1)C(=O)CN2C3=C(CCCC3)SC2=N [Pifithrin_alpha] + CC(C)C[C@H](NC(=O)[C@H](Cc1ccccc1)NC(=O)c1cnccn1)B(O)O [Bortezomib] (partner 0.002 µM)
Procedure, shortened: (§1)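 Lung cancer cell lines were seeded in 1536-well plates and dosed by pin tool the next day, with either a single drug or a fixed anchor-drug dose combined with five library-drug doses (not always all listed) spaced in √10 steps. Five days later, one step fixed the cells and stained their nuclei (final 0.05% Triton X-100, 1% formaldehyde, 1 ug/ml Hoechst), and nuclei were counted on 4× images. Relative viability is the nuclei count in treated wells divided by the count in vehicle wells, and each value is the median of duplicate plates.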

[2] = compound: CC1=CC=C(C=C1)C(=O)CN2C3=C(CCCC3)SC2=N [Pifithrin_alpha] + CCNC(=O)c1noc(-c2cc(C(C)C)c(O)cc2O)c1-c1ccc(CN2CCOCC2)cc1 [Luminespib] (partner 0.01 µM)
Procedure, shortened: as §1

[3] = compound: CC1=CC=C(C=C1)C(=O)CN2C3=C(CCCC3)SC2=N [Pifithrin_alpha] + CS(=O)(=O)N1CCN(Cc2cc3nc(-c4cccc5[nH]ncc45)nc(N4CCOCC4)c3s2)CC1 [Pictilisib] (partner 1 µM)
Procedure, shortened: as §1

Bemcentinib + Trametinib = compound: Nc1nc(Nc2ccc3c(c2)CC[C@@H](N2CCCC2)CC3)nn1-c1cc2c(nn1)-c1ccccc1CCC2 [Bemcentinib] + CC(=O)Nc1cccc(-n2c(=O)n(C3CC3)c(=O)c3c(Nc4ccc(I)cc4F)n(C)c(=O)c(C)c32)c1 [Trametinib] (partner 0.02 µM)
Procedure, shortened: as §1

| Cell Line | relative viability ([1]; first compound 1 µM) | relative viability ([1]; first compound 3.162 µM) | relative viability ([1]; first compound 10 µM) | relative viability ([1]; first compound 31.62 µM) | relative viability ([1]; first compound 100 µM) | relative viability ([2]; first compound 1 µM) | relative viability ([2]; first compound 3.162 µM) | relative viability ([2]; first compound 10 µM) | relative viability ([2]; first compound 31.62 µM) | relative viability ([2]; first compound 100 µM) | relative viability ([3]; first compound 1 µM) | relative viability ([3]; first compound 3.162 µM) | relative viability ([3]; first compound 10 µM) | relative viability ([3]; first compound 31.62 µM) | relative viability ([3]; first compound 100 µM) | relative viability (Bemcentinib + Trametinib; first compound 0.04 µM) | relative viability (Bemcentinib + Trametinib; first compound 0.1265 µM) | relative viability (Bemcentinib + Trametinib; first compound 0.4 µM) | relative viability (Bemcentinib + Trametinib; first compound 1.265 µM) | relative viability (Bemcentinib + Trametinib; first compound 4 µM) |
| --- | --- | --- | --- | --- | --- | --- | --- | --- | --- | --- | --- | --- | --- | --- | --- | --- | --- | --- | --- | --- |
| A-427 | 0.953 | 0.957 | 0.916 | 0.722 | 0.928 | 1.07 | 0.917 | 1 | 0.678 | 0.828 | 0.722 | 0.629 | 0.666 | 0.522 | 0.657 | 0.711 | 0.696 | 0.812 | 0.773 | 0.668 |
| NCI-H2126 | 1.11 | 1.09 | 0.925 | 0.896 | 0.94 | 0.751 | 0.956 | 0.783 | 0.709 | 0.72 | 0.341 | 0.482 | 0.405 | 0.427 | 0.376 | 0.639 | 0.583 | 0.588 | 0.581 | 0.585 |
| NCI-H647 | 0.992 | 0.966 | 0.706 |  | 0.736 | 0.356 | 0.26 | 0.157 | 0.103 | 0.177 |  | 0.413 | 0.37 | 0.226 | 0.341 | 0.493 | 0.545 | 0.538 | 0.392 | 0.634 |
| ChaGo-K-1 | 0.962 | 1.21 | 0.944 | 0.711 | 0.986 | 0.563 | 0.528 | 0.477 | 0.38 | 0.581 | 0.431 | 0.653 | 0.631 | 0.473 | 0.559 | 0.911 | 0.945 | 0.939 | 0.877 | 0.902 |
| UMC-11 | 0.818 | 0.803 | 0.759 | 0.574 | 1.05 | 0.98 | 1.22 | 1.36 | 1.08 | 1.48 | 0.775 | 0.802 | 0.888 | 0.604 | 1.03 | 0.558 | 0.876 | 0.712 | 0.779 | 0.744 |
| LOU-NH91 | 0.409 | 0.475 | 0.445 | 0.414 | 0.503 | 0.322 | 0.261 | 0.308 | 0.315 | 0.296 | 0.473 | 0.476 | 0.444 | 0.442 | 0.371 | 0.807 | 0.792 | 0.849 | 0.822 | 0.789 |
| HCC-44 | 0.916 | 0.851 | 0.793 | 0.68 | 0.652 | 1.06 | 1.21 | 0.671 | 0.543 | 0.622 | 0.433 | 0.475 | 0.539 | 0.408 | 0.423 | 1.11 | 1.13 | 1.06 | 1.18 | 1.18 |
| HCC-15 | 1.1 | 1.11 | 0.919 | 0.772 | 1.1 | 0.175 | 0.284 | 0.315 | 0.209 | 0.322 | 0.691 | 0.754 | 0.673 | 0.458 | 0.715 | 0.389 | 0.365 | 0.44 | 0.368 | 0.42 |
| NCI-H522 |  |  |  |  |  |  | 1.16 | 1.26 | 0.993 | 1.11 |  |  |  |  |  | 0.75 | 0.742 | 0.754 | 0.771 | 0.788 |
| NCI-H1563 | 0.732 | 0.697 | 0.755 | 0.733 | 0.78 | 0.489 | 0.549 | 0.47 | 0.467 | 0.539 | 0.53 | 0.688 | 0.61 | 0.65 | 0.705 |  |  |  |  |  |
| NCI-H1703 | 0.416 | 0.344 | 0.368 | 0.288 | 0.279 |  |  |  |  |  | 0.25 | 0.24 | 0.261 | 0.214 | 0.251 |  |  |  |  |  |
| Calu-6 | 1.07 | 1.04 | 0.899 | 0.569 | 0.881 |  |  |  |  |  | 1 | 0.907 | 0.816 | 0.546 | 0.644 |  |  |  |  |  |
| LK-2 |  |  |  |  |  | 0.219 | 0.179 | 0.171 |  | 0.229 | 0.631 | 0.599 | 0.589 |  | 0.62 | 0.798 | 0.908 | 0.629 | 0.795 | 0.885 |
| NCI-H1944 |  |  |  |  |  | 0.694 | 0.633 | 0.588 | 0.42 | 0.504 | 0.314 | 0.341 | 0.307 |  | 0.308 | 0.399 | 0.43 | 0.463 | 0.431 | 0.468 |
| EBC-1 | 0.512 | 0.411 | 0.437 | 0.354 | 0.287 |  |  |  |  |  | 0.261 | 0.224 | 0.237 | 0.198 | 0.214 |  |  |  |  |  |
| NCI-H2170 |  |  |  |  |  | 0.849 | 0.53 | 0.742 | 0.542 | 0.705 | 0.271 | 0.302 | 0.274 | 0.278 | 0.33 | 0.94 | 0.967 | 0.92 | 0.968 | 0.936 |
| SW 900 |  |  |  |  |  | 0.2 | 0.194 | 0.142 | 0.167 | 0.19 |  |  |  |  |  | 0.56 | 0.947 | 0.927 | 0.953 | 0.933 |
| NCI-H1395 |  |  |  |  |  | 0.704 | 0.518 | 0.631 | 0.663 | 0.657 |  | 0.553 | 0.562 | 0.465 | 0.484 |  | 1.12 | 1.02 | 1.2 | 1.11 |
| NCI-H1299 | 1.08 | 1.02 | 1.02 | 0.896 | 1.03 |  |  |  |  |  | 0.797 | 0.827 | 0.919 | 0.452 | 0.762 |  |  |  |  |  |
| NCI-H1793 |  |  |  |  |  |  | 0.168 | 0.17 | 0.186 | 0.194 | 0.251 | 0.388 | 0.436 | 0.341 | 0.323 | 0.442 | 0.436 | 0.421 | 0.442 | 0.365 |
| NCI-H1623 |  |  |  |  |  | 0.464 | 0.285 | 0.339 | 0.318 | 0.322 |  |  |  |  |  |  |  |  |  |  |
| ABC-1 | 0.322 | 0.351 | 0.328 | 0.26 | 0.298 |  | 0.642 | 0.766 | 0.508 | 0.262 | 0.273 | 0.745 | 0.735 | 0.429 | 0.437 |  |  |  |  |  |
